In patent publication US9555029B2 (HIKMA PHARMACEUTICALS, priority 2013, dated 2017):
Read-outs that look alike come from different tables or passages of the source.

Legend:
[1] = clinical; details: male, human, in vivo
[2] = cited from earlier work; for Kel / T1/2el: arithmetic mean; for AUCT / Cmax: geometric mean
[3] = Description: (§1) Safety was evaluated through assessment of adverse events, standard laboratory evaluations, physical examination (including vital signs) and ECG. Safety was determined by descriptive statistics.
The inhibitor dosage form was an oral 200 mg tablet of Diflucan® (fluconazole, from Pfizer).
The fluconazole trial differed from the Example 2 protocol as follows.

[4] = for AUCT/∞ / Kel / T1/2el: mean
[5] = cited from earlier work; for Kel / T1/2el: arithmetic mean; for AUCT / Cmax: geometric mean; remark: listed apart in the source
[6] = Incidence of adverse effects for colchicine coadministered with voriconazole
Description: as §1

[7] = cited from earlier work; for Kel / T1/2el: arithmetic mean; for AUCT / Cmax: geometric mean; remark: listed apart in the source
[8] = cited from earlier work; for AUCT / Cmax: geometric mean
[9] = Treatment-1: colchicine 0.6 mg alone (day 1, fasted), azithromycin study
[10] = Treatment-2: colchicine 0.6 mg (day 19) + azithromycin 500 mg day 15, 250 mg once daily days 16-19
[11] = of 12 subjects, colchicine + fluconazole
[12] = of 12 subjects, fluconazole study
[13] = Treatment-1 (day 1): colchicine 0.6 mg alone, fasted, cimetidine study
[14] = Treatment-2 (day 9): colchicine 0.6 mg + cimetidine 800 mg after double dose day 4, once daily days 5-8, fasted
[15] = Treatment-1: colchicine 0.6 mg alone (day 1, fasted), clarithromycin study
[16] = Treatment-2: colchicine 0.6 mg + clarithromycin 250 mg twice daily (days 22-29)
[17] = of 12 subjects, colchicine + voriconazole
[18] = of 12 subjects, voriconazole study
[19] = Treatment-1: colchicine 0.6 mg alone (day 1, fasted), cyclosporine study
[20] = Treatment-2: colchicine 0.6 mg + cyclosporine 100 mg once (day 15)
[21] = Treatment-1: colchicine 0.6 mg alone (day 1, fasted), ketoconazole study, arithmetic mean
[22] = Treatment-1: colchicine 0.6 mg alone (day 1, fasted), ketoconazole study
[23] = Treatment-2: colchicine 0.6 mg (day 19) + ketoconazole 200 mg twice daily

COc1cc2c(c(OC)c1OC)-c1ccc(OC)c(=O)cc1[C@@H](NC(C)=O)CC2 [Colchicine, (S)N-(5,6,7,9-tetrahydro-1,2,3,10-tetramethoxy-9-oxobenzo[alpha]heptalen-7-yl)acetamide]
CL/F ([1]; 0.6 mg): 558 mL/min | Tmax ([1]; 0.6 mg): 1.5 h | Vd/F ([1]; 0.6 mg): 1410 L | AUC(0-t) ([1]; 0.6 mg, AUCT GEOMETRIC LSMEANS, Treatment-1: colchicine 0.6 mg alone, propafenone study): 16.2 ng·h/mL | AUC(0-t) ([1]; 0.6 mg, AUCT, Treatment-1 (day 1): colchicine 0.6 mg alone, fasted, propafenone study, mean): 16.6 ng·h/mL | AUC(0-inf) ([1]; 0.6 mg, AUC∞ GEOMETRIC LSMEANS, Treatment-1: colchicine 0.6 mg alone, propafenone study): 18.4 ng·h/mL | AUC(0-inf) ([1]; 0.6 mg, AUC∞, Treatment-1 (day 1): colchicine 0.6 mg alone, fasted, propafenone study, mean): 18.9 ng·h/mL | Cmax ([1]; 0.6 mg, Cmax GEOMETRIC LSMEANS, Treatment-1: colchicine 0.6 mg alone, propafenone study): 2.05 ng/mL | Cmax ([1]; 0.6 mg, Cmax, Treatment-1 (day 1): colchicine 0.6 mg alone, fasted, propafenone study, mean): 2.12 ng/mL | AUC(0-t) ([1]; AUCT GEOMETRIC LSMEANS, Treatment-2: colchicine 0.6 mg + propafenone): 16.4 ng·h/mL | AUC(0-t) ([1]; AUCT, Treatment-2 (day 9): colchicine 0.6 mg + propafenone 225 mg after twice daily days 4-8, fasted, mean): 16.8 ng·h/mL | AUC(0-inf) ([1]; AUC∞ GEOMETRIC LSMEANS, Treatment-2: colchicine 0.6 mg + propafenone): 18.4 ng·h/mL | AUC(0-inf) ([1]; AUC∞, Treatment-2 (day 9): colchicine 0.6 mg + propafenone 225 mg after twice daily days 4-8, fasted, mean): 18.9 ng·h/mL | Cmax ([1]; Cmax GEOMETRIC LSMEANS, Treatment-2: colchicine 0.6 mg + propafenone): 2.18 ng/mL | Cmax ([1]; Cmax, Treatment-2 (day 9): colchicine 0.6 mg + propafenone 225 mg after twice daily days 4-8, fasted, mean): 2.21 ng/mL | Kel [2, 9]: 0.147 h⁻¹ | T1/2el [2, 9]: 6.07 h | CLTOT/F [2, 9]: 50.24 L/h | AUCT [2, 9]: 11,980 pg · h/mL | Cmax [2, 9]: 2,740 pg/mL | Kel [2, 10]: 0.1426 h⁻¹ | T1/2el [2, 10]: 6.71 h | CLTOT/F [2, 10]: 35.01 L/h | AUCT [2, 10]: 17,160 pg · h/mL | Cmax [2, 10]: 3,050 pg/mL | Total number of adverse events after Treatment-2 ([3]; colchicine + fluconazole): 3 | Number of adverse events requiring medication after Treatment-1 ([3]; fluconazole study): None | Number of serious adverse events or deaths ([3]; fluconazole study): None | Total number of adverse events after Treatment-1 ([3]; fluconazole study): 7 | Number of subjects experiencing adverse events after Treatment-2 [3, 11]: 3 | Percent of subjects experiencing adverse events after Treatment-2 [3, 11]: 25.0% | Number of subjects experiencing adverse events after Treatment-1 [3, 12]: 3 | Percent of subjects experiencing adverse events after Treatment-1 [3, 12]: 25.0% | AUCT/∞ [4, 13]: 85.29% | Kel [4, 13]: 0.0201 h⁻¹ | T1/2el [4, 13]: 35.46 h | AUCT/∞ [4, 14]: 86.53% | Kel [4, 14]: 0.0222 h⁻¹ | T1/2el [4, 14]: 31.54 h | Decrease of colchicine Cmax ([4]; coadministration with cimetidine vs colchicine alone): 33% | Decrease of colchicine AUC ([4]; coadministration with cimetidine vs colchicine alone, not significant): 15% | Kel [5, 15]: 0.1324 h⁻¹ | T1/2el [5, 15]: 8.89 h | CLTOT/F [5, 15]: 46.8 L/h | AUCT [5, 15]: 12,370 pg · h/mL | Cmax [5, 15]: 2,840 pg/mL | Kel [5, 16]: 0.0296 h⁻¹ | T1/2el [5, 16]: 30.31 h | CLTOT/F [5, 16]: 12.0 L/h | AUCT [5, 16]: 41,950 pg · h/mL | Cmax [5, 16]: 8,440 pg/mL | Total number of adverse events after Treatment-2 ([6]; colchicine + voriconazole): 2 | Number of subjects experiencing adverse events after Treatment-2 [6, 17]: 1 | Percent of subjects experiencing adverse events after Treatment-2 [6, 17]: 8.3% | Number of subjects experiencing adverse events after Treatment-1 [6, 18]: 7 | Percent of subjects experiencing adverse events after Treatment-1 [6, 18]: 58.3% | Number of adverse events requiring medication after Treatment-1 ([6]; voriconazole study): None | Number of serious adverse events or deaths ([6]; voriconazole study): None | Total number of adverse events after Treatment-1 ([6]; voriconazole study): 20 | Kel [7, 19]: 0.147 h⁻¹ | T1/2el [7, 19]: 6.777 h | CLTOT/F [7, 19]: 48.24 L/h | AUCT [7, 19]: 12,555 pg · h/mL | Cmax [7, 19]: 2,720 pg/mL | Kel [7, 20]: 0.038 h⁻¹ | T1/2el [7, 20]: 20.65 h | CLTOT/F [7, 20]: 13.42 L/h | AUCT [7, 20]: 29,830 pg · h/mL | Cmax [7, 20]: 8,820 pg/mL | Kel [8, 21]: 0.1491 h⁻¹ | T1/2el [8, 21]: 6.28 h | CLTOT/F [8, 22]: 49.3 L/h | AUCT [8, 22]: 11,990 pg · h/mL | Cmax [8, 22]: 2,780 pg/mL | T1/2el ([8]; Treatment-2: colchicine 0.6 mg (day 19) + ketoconazole 200 mg twice daily, arithmetic mean): 26.06 h | CLTOT/F [8, 23]: 14.8 L/h | AUCT [8, 23]: 34,380 pg · h/mL | Cmax [8, 23]: 5,270 pg/mL
